B1: K: 495 amino-acid staphylococcal phage K endolysin LysK, C-terminal His6 tag; SEQ ID NO:3 (protein)
chain: MAKTQAEINKRLDAYAKGTVDSPYRVKKATSYDPSFGVMEAGAIDADGYYHAQCQDLITDYVLWLTDNKVRTWGNAKDQIKQSYGTGFKIHENKPSTVPKKGWIAVFTSGSYEQWGHIGIVYDGGNTSTFTILEQNWNGYANKKPTKRVDNYYGLTHFIEIPVKAGTTVKKETAKKSASKTPAPKKKATLKVSKNHINYTMDKRGKKPEGMVIHNDAGRSSGQQYENSLANAGYARYANGIAHYYGSEGYVWEAIDAKNQIAWHTGDGTGANSGNFRFAGIEVCQSMSASDAQFLKNEQAVFQFTAEKFKEWGLTPNRKTVRLHMEFVPTACPHRSMVLHTGFNPVTQGRPSQAIMNKLKDYFIKQIKNYMDKGTSSSTVVKDGKTSSASTPATRPVTGSWKKNQYGTWYKPENATFVNGNQPIVTRIGSPFLNAPVGGNLPAGATIVYDEVCIQAGHIWIGYNAYNGNRVYCPVRTCQGVPPNQIPGVAWGVFKLEHHHHHH
modifications: C-terminal His6 tag; Phage K

Tests used:
S. aureus Newman = experiment: Minimum Inhibitory Concentration (MIC) assay; assay type: cell-based; conditions: for Minimum Inhibitory Conc. (median μg/ml): S. aureus Newman
Procedure: (§1) The Minimum Inhibitory Concentrations (MIC) of each protein for multiple S. aureus strains was determined as previously described (Jones et al. 1985. In: Manual of Clinical Microbiology, Eds. Balows et al. American Society of Microbiology, Washington D.C., pp. 972-977) with the following modifications. Enzymes were serially diluted two fold across a 96 well plate, such that after dilution, 50 μl of the enzyme solution in 300 mM NaCl, 50 mM NaH2PO4, 30% glycerol pH 7.5, remained in each well. To each well was added 50 μl of TSB and 100 μl of S. aureus Newman in TSB (diluted to 5×10^6 cells/ml). The plates were incubated 20 h at 37° C. and read with a 96 well plate reader. MIC determination values were reported as the median of ≧4 replicates (Table 1).

S. aureus Newbould 305 = experiment: Minimum Inhibitory Concentration (MIC) assay; assay type: cell-based; conditions: Mastitis isolate S. aureus Newbould 305
Procedure: as §1

S. aureus ALR = experiment: Minimum Inhibitory Concentration (MIC) assay; assay type: cell-based; conditions: S. aureus ALR
Procedure: as §1

USA 500 (NRS 385) = experiment: Minimum Inhibitory Concentration (MIC) assay; assay type: cell-based, S. aureus
Procedure: as §1

NRS 271 = experiment: Minimum Inhibitory Concentration (MIC) assay; assay type: cell-based, S. aureus
Procedure: as §1

NRS 193 = experiment: Minimum Inhibitory Concentration (MIC) assay; assay type: cell-based, S. aureus
Procedure: as §1

USA 100 (NRS 382) = experiment: Minimum Inhibitory Concentration (MIC) assay; assay type: cell-based, S. aureus
Procedure: as §1

NRS 194 = experiment: Minimum Inhibitory Concentration (MIC) assay; assay type: cell-based, S. aureus
Procedure: as §1

N315 (NRS 70) = experiment: Minimum Inhibitory Concentration (MIC) assay; assay type: cell-based, S. aureus
Procedure: as §1

USA 600 (NRS 22) = experiment: Minimum Inhibitory Concentration (MIC) assay; assay type: cell-based, S. aureus
Procedure: as §1

NRS 209 = experiment: Minimum Inhibitory Concentration (MIC) assay; assay type: cell-based, S. aureus
Procedure: as §1

Sanger 252 (NRS 71) = experiment: Minimum Inhibitory Concentration (MIC) assay; assay type: cell-based, S. aureus
Procedure: as §1

USA 200 (NRS 383) = experiment: Minimum Inhibitory Concentration (MIC) assay; assay type: cell-based, S. aureus
Procedure: as §1

USA 400 (NRS 123) = experiment: Minimum Inhibitory Concentration (MIC) assay; assay type: cell-based, S. aureus
Procedure: as §1

USA 300 (NRS 384) = experiment: Minimum Inhibitory Concentration (MIC) assay; assay type: cell-based, S. aureus
Procedure: as §1

NRS 192 = experiment: Minimum Inhibitory Concentration (MIC) assay; assay type: cell-based, S. aureus
Procedure: as §1

S. aureus strain Newman [1] = assay type: cell-based; conditions: tenth round compared to first exposure
Procedure: For the MIC repeated exposure method, MIC determinations were performed with S. aureus strain Newman. 100 μl of S. aureus strain Newman culture that survived at ½ the MIC (the first well with visible growth) for each round was inoculated into 5 ml TSB and cultivated to mid-log phase growth. This culture was used as the inoculum for the next round of MIC exposure (overnight growth), and the cycle was repeated for 10 rounds.
Development of resistance to the triple-acting fusion enzymes was tested on S. aureus strain Newman and compared to both parental enzymes applied individually or simultaneously. […] Survivors of the ten round exposure to peptidoglycan hydrolase were passaged five times in medium with no peptidoglycan hydrolase added. […] We compared our triple-acting fusions to small molecule antibiotics in similar assays.

S. simulans MP03 = experiment: Minimum Inhibitory Concentration (MIC) assay; assay type: cell-based, Staphylococcus simulans; conditions: Mastitis isolate S. simulans MP03
S. hyicus MP01 = experiment: Minimum Inhibitory Concentration (MIC) assay; assay type: cell-based, Staphylococcus hyicus; conditions: Mastitis isolate S. hyicus MP01
S. aureus strain Newman [2] = experiment: Resistance development, plate lysis repeated exposure method; assay type: cell-based; conditions: not shown
Procedure: For the plate lysis assays, purified enzymes were serially diluted in saline lysis buffer (SLB; 150 mM NaCl 10 mM Tris buffer, pH 7.5) with 15% glycerol, to yield concentrations of 100, 10, 1, and 0.1 pmoles/10 μl. S. aureus Newman was cultivated in tryptic soy broth (TSB) to an OD600 nm=0.4-0.6. The bacterial cells were harvested and diluted to yield a suspension with an OD600 nm of 0.1. Tryptic soy agar (TSA) plates were flooded with 3 ml of the bacterial cell suspension. Excess culture was removed, and the plates were air dried at room temperature for ˜30 min in a laminar flow hood. 10 μl of each peptidoglycan hydrolase dilution was then spotted onto the air-dried lawn, allowed to air dry, and the culture plates incubated overnight at 37° C. The following day, plates were evaluated visually and photographed.
In the Plate lysis method, bacterial cells were scraped from a sub-lethal (not fully cleared) spot from a plate lysis assay (described above), and these ‘exposed’ cells were used to inoculate 5 ml of TSB and grown for 4-6 hours to generate a new culture and lawn for subsequent exposure. Bacteria were passaged in this assay for up to 10 consecutive days, at which time the S. aureus were tested in MIC assays. Plate lysis repeated exposure experiments were performed in duplicate.

[3] = first exposure of the resistance development experiment, FIG. 1b
[4] = first exposure, molar concentration in brackets

| Molecule | Minimum Inhibitory Conc. (median μg/ml) (S. aureus Newman) [µg/mL] | First exposure MIC (S. aureus Newman; [3]) [µg/mL] | First exposure MIC (S. aureus Newman; [4]) [µM] | Minimum Inhibitory Conc. (median μg/ml) (S. aureus Newbould 305) [µg/mL] | Minimum Inhibitory Conc. (median μg/ml) (S. aureus ALR) [µg/mL] | Minimum Inhibitory Conc. (median μg/ml) (USA 500 (NRS 385)) [µg/mL] | Minimum Inhibitory Conc. (median μg/ml) (NRS 271) [µg/mL] | Minimum Inhibitory Conc. (median μg/ml) (NRS 193) [µg/mL] | Minimum Inhibitory Conc. (median μg/ml) (USA 100 (NRS 382)) [µg/mL] | Minimum Inhibitory Conc. (median μg/ml) (NRS 194) [µg/mL] | Minimum Inhibitory Conc. (median μg/ml) (N315 (NRS 70)) [µg/mL] | Minimum Inhibitory Conc. (median μg/ml) (USA 600 (NRS 22)) [µg/mL] | Minimum Inhibitory Conc. (median μg/ml) (NRS 209) [µg/mL] | Minimum Inhibitory Conc. (median μg/ml) (Sanger 252 (NRS 71)) [µg/mL] | Minimum Inhibitory Conc. (median μg/ml) (USA 200 (NRS 383)) [µg/mL] | Minimum Inhibitory Conc. (median μg/ml) (USA 400 (NRS 123)) [µg/mL] | Minimum Inhibitory Conc. (median μg/ml) (USA 300 (NRS 384)) [µg/mL] | Minimum Inhibitory Conc. (median μg/ml) (NRS 192) [µg/mL] | increase in MIC after 10 rounds of sub-lethal exposure (S. aureus strain Newman [1]) [fold] | Minimum Inhibitory Conc. (median μg/ml) (S. simulans MP03) [µg/mL] | other results |
| --- | --- | --- | --- | --- | --- | --- | --- | --- | --- | --- | --- | --- | --- | --- | --- | --- | --- | --- | --- | --- | --- |
| L: 247 amino acid mature (secreted) lysostaphin, staphylolytic bacteriocin, C-terminal His6 tag; SEQ ID NO:1 [reference compound] | 0.77 | 0.77 | 0.027 | 12 | 0.77 | 1.2 | 0.58 | 1.2 | 1.2 | 1.2 | 0.68 | 1.2 | 0.97 | 0.58 | 1.2 | 1.2 | 1.2 | 1.2 | 585 | 1.5 | Minimum Inhibitory Conc. (median μg/ml) (S. hyicus MP01): 0.29 µg/mL; increased resistance during 10 rounds of sub-lethal exposure in plate lysis assays (S. aureus strain Newman [2]): 8 fold |
| K-L: both LysK lytic domains fused to the N-terminus of lysostaphin; SEQ ID NO:5, protein SEQ ID NO:6 | 7.0 | 7 | 0.097 | 11 | 7.0 | 7.0 | 7.0 | 7.0 | 14 | 14 | 7.0 | 7.0 | 7.0 | 5.5 | 5.5 | 7.0 | 11 | 11 | 8 | 3.5 | Minimum Inhibitory Conc. (median μg/ml) (S. hyicus MP01): 1.8 µg/mL; increased resistance during 10 rounds of sub-lethal exposure in plate lysis assays (S. aureus strain Newman [2]): no detectable increase in resistance |
| B1 | 47 | 47 | 0.84 | 34 | 34 | 67 | 44 | 37 | 96 | 69 | 37 | 75 | 40 | 29 | 34 | 75 | 75 | 80 | 42 | 20 | Minimum Inhibitory Conc. (median μg/ml) (S. hyicus MP01): 8.4 µg/mL; increased resistance during 10 rounds of sub-lethal exposure in plate lysis assays (S. aureus strain Newman [2]): 2 fold |

From patent publication US20160097044A1, “Antimicrobial Enzyme Fusions Reduce Resistance and Kill Intracellular Staphylococcus aureus” (The United States of America, as Represented by the …, priority 2014, published 2016)
